Experimental data: ChEMBL document CHEMBL1201862, “PubChem BioAssay data set” (2004)
Activity calls are given as the source filed them.

Columns and labels:
[1] = inhibitors of intracellular T. cruzi replication, confirmation, NIH3T3 host cells, beta-gal luminescence (AID 2044); type: functional, cell-based;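 also: intracellular parasites grown in NIH/3T3 mouse fibroblasts as host cells; luminescent beta-galactosidase reporter signal from transgenic T. cruzi replicating inside host cells; inhibitors lower the luminescence signal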
[2] = cytotoxicity toward NIH3T3 fibroblasts, dose response, counter-screen, cell-based, ATP luminescence, mouse fibroblasts (AID 2010); type: functional;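 also: cells exposed to compound for about 90 hours before reading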
[3] = HEK293T cytotoxicity, dose response, cytotoxicity control for miR-122 modulator project, cell-based, activator set, cherry-pick (AID 720690); type: functional;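 also: HEK293T human cells scored for general mammalian cytotoxicity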
[4] = target: T1, Rac GTPase-activating protein 1 (Homo sapiens, UniProt Q9H0H5); experiment: MgcRacGAP GTPase-activating activity inhibitors, confirmation, biochemical, ADP Hunter fluorescence, primary and confirmatory (AID 624330); type: functional
T1 sequence (Q9H0H5 whole entry): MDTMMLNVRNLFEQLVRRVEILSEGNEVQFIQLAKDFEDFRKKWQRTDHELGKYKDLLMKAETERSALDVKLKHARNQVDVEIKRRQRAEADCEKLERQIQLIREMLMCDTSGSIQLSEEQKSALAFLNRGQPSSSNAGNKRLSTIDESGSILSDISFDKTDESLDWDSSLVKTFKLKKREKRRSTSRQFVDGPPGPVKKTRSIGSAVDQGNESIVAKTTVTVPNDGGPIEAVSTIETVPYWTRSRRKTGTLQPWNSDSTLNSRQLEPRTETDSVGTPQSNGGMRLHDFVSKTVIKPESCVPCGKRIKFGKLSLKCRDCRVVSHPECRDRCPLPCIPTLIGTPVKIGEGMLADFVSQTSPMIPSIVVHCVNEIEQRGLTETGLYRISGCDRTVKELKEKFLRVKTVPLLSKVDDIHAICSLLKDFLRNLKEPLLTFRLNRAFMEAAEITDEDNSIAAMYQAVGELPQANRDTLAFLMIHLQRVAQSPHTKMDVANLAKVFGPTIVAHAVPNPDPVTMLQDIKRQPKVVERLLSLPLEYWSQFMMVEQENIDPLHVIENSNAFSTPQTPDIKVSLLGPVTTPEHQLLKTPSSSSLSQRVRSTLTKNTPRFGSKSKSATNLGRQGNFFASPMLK

fMet-Leu-Phe receptor = fMet-Leu-Phe receptor (Homo sapiens, UniProt P21462); experiment: FPR ligands, dose response (AID 519); type: functional
Chain of fMet-Leu-Phe receptor (P21462 whole entry): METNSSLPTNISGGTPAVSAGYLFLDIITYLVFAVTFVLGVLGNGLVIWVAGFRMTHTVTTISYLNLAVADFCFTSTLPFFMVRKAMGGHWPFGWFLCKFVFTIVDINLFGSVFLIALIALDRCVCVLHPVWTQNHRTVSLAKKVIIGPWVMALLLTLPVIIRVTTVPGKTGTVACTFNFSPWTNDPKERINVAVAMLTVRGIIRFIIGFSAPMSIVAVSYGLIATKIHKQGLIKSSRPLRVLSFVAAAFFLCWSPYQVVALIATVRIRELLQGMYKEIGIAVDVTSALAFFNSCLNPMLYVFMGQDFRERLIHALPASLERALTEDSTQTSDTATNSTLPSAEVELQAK

[5] = target: Luciferin 4-monooxygenase (Photinus pyralis, UniProt P08659); experiment: firefly luciferase enzyme inhibitors, dose response, biochemical, luminescence (AID 1891)
Chain of Luciferin 4-monooxygenase (P08659 whole entry): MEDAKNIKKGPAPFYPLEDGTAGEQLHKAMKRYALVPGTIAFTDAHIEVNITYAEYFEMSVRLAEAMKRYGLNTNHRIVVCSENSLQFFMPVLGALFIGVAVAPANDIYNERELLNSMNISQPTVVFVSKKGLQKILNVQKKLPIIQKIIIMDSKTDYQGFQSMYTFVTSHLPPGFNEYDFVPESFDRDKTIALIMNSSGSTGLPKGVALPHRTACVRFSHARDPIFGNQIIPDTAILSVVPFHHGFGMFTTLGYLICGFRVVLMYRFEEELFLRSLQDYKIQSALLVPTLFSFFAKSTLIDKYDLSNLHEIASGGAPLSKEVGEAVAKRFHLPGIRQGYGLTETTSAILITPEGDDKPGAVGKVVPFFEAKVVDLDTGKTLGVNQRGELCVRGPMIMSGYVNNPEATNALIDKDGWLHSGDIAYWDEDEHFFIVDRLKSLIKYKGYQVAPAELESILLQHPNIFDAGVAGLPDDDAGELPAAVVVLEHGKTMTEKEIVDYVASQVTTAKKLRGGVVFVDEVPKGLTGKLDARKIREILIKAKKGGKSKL

[6] = Luminescence Cell-Based Dose Confirmation HTS to Identify Inhibitors of Platelet Dense Granule Release. [Related pubchem assays: 1663 (Primary HTS), 1678 (Summary of Project)]; type: functional
[7] = HepG2 cell cytotoxicity, dose response, cytotoxicity control, ATP luminescence, cherry-pick, activator set 2 (AID 1053143); type: functional, cell-based
Aminopeptidase N = target: T2, Aminopeptidase N (Plasmodium falciparum FcB1/Columbia, UniProt O96935); experiment: P. falciparum M1AAP inhibitors, biochemical, fluorogenic H-Leu-NHMec substrate, 1536-well (AID 1445); design: species or system Plasmodium falciparum 3D7, 3D7
T2 sequence (O96935 whole entry): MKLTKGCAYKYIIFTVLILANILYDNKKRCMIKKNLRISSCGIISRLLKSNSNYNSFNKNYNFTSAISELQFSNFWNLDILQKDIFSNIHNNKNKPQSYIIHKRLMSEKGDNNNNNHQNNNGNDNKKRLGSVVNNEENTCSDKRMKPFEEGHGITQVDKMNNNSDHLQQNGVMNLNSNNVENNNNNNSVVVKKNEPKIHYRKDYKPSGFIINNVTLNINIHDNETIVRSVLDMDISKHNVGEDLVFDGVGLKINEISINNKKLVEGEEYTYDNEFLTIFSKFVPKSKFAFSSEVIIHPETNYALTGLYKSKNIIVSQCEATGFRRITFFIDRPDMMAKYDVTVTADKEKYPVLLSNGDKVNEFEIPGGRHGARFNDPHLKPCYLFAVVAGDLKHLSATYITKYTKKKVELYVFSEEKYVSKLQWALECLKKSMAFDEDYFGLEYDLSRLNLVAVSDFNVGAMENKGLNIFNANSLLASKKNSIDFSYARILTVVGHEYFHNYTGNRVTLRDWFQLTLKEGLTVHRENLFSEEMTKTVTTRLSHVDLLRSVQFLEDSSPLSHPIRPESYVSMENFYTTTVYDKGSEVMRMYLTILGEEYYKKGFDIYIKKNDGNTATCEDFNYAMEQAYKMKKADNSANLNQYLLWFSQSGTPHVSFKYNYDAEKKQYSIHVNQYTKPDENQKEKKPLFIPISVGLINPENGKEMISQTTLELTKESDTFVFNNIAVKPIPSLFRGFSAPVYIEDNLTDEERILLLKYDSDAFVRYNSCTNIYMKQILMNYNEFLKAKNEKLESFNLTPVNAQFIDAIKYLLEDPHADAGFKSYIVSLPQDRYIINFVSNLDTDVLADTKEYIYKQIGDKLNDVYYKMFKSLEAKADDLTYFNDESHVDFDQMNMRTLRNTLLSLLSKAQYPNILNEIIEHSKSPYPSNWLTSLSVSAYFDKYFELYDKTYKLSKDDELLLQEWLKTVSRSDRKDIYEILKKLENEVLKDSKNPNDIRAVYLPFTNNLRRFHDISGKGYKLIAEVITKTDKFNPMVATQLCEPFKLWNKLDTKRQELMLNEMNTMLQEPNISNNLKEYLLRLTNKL

[8] = microbe, parasite or virus in culture; type: functional; conditions: Mycobacterium tuberculosis
[9] = Vero E6 cell cytotoxicity, dose response, cytotoxicity control for non-replicating M. tuberculosis project, secondary assay (AID 492998); type: functional, VeroE6; conditions: Vero C1008
cells = type: functional
[10] = Artemis endonuclease inhibitor potency, dose response, biochemical, fluorescence intensity (AID 720701); type: functional;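 also: Artemis endonuclease enzyme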
[11] = Shn3 3'UTR reporter inhibitors, dose response, cell-based, Clone20 osteoblasts, firefly luciferase, cherry-picked (AID 624132); type: functional;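 also: firefly luciferase luminescence from reporter carrying the Shn3 3'UTR in osteoblasts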
[12] = control 3'UTR Renilla luciferase suppression, dose response, counter-screen for Shn3 inhibitor project, cell-based, Clone20-Shn3RL, cherry-picked (AID 624133); type: functional
[13] = reduction of Shn3 3'UTR firefly luciferase signal, dose response, Schnurri-3 inhibitor project, cell-based, Clone20 osteoblasts, cherry-pick, set 2 (AID 720490); type: functional;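 also: actives lower the luminescence signal as inhibitors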
[14] = inhibitors of control Renilla luciferase reporter, dose response, counter-screen for Shn3 3'UTR targeting project, Clone20-Shn3RL cells, dual-Glo, cherry-pick, set 2 (AID 720724); type: functional, cell-based; conditions: Dual-Go Shn3RL
Paired box protein Pax-8 = Paired box protein Pax-8 (Homo sapiens, UniProt Q06710); experiment: inhibitors of PAX8-driven TPO luciferase reporter, dose response, RMG-I cells, cherry-pick (AID 687027); type: functional, cell-based;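 also: luciferase reporter driven by Pax8 target thyroperoxidase promoter measured by SteadyGlo luminescence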
Chain of Paired box protein Pax-8 (Q06710 whole entry): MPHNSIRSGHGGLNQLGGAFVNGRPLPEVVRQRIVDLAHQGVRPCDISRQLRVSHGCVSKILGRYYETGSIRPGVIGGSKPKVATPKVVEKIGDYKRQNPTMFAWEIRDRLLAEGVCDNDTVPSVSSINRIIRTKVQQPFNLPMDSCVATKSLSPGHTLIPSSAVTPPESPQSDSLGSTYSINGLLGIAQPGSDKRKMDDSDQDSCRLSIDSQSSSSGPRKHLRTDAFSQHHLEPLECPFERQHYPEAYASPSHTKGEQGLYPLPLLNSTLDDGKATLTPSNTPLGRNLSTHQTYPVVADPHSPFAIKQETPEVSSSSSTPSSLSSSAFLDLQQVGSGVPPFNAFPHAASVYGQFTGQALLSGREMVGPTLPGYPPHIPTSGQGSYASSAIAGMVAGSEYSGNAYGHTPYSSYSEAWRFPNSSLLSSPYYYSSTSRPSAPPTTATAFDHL

[15] = A2780 ovarian cancer cell cytotoxicity, dose response, cytotoxicity control, plate reader, dry powder samples (AID 743046); type: functional, cell-based
[16] = NIH:OVCAR-3 ovarian cancer cell cytotoxicity, dose response, PAX8 inhibitor project, plate reader, dry powder samples (AID 743044); type: functional, cell-based
[17] = IGROV1 ovarian cancer cell cytotoxicity, dose response, PAX8 inhibitor project, plate reader, dry powder samples (AID 743043); type: functional, cell-based; conditions: IGROV-1
[18] = cytotoxicity in OVCAR8 ovarian cancer cells, dose response, PAX8 project, cell-based, plate reader, dry powder samples (AID 743197); type: functional; conditions: OVCAR-8
[19] = inhibitors of HIV Env-driven cell fusion, dose response, cherry-pick (AID 652057); type: functional, cell-based
[20] = ZM109 Env clade C HIV-1 fusion inhibitors, dose response, HeLa effector, CEM target cells, luciferase, cherry-pick (AID 652058); type: functional, cell-based
[21] = inhibitors of clade B AD8 Env fusion, dose response, cell-based, cherry-pick (AID 652062); type: functional;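 also: luciferase signal from cell-cell fusion driven by HIV-1 clade B AD8 Env; potency is for inhibitors of fusion seen as a drop in luminescence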
[22] = CEM21 cell cytotoxicity, dose response, cytotoxicity control, plate reader, dry powder (AID 687026); type: functional, cell-based
[23] = target: Tyrosyl-DNA phosphodiesterase 2 (Homo sapiens, UniProt O95551); experiment: human TDP2 enzyme inhibitors, dose response, biochemical, epi absorbance, IC50 (AID 743297)
Chain of Tyrosyl-DNA phosphodiesterase 2 (O95551 whole entry): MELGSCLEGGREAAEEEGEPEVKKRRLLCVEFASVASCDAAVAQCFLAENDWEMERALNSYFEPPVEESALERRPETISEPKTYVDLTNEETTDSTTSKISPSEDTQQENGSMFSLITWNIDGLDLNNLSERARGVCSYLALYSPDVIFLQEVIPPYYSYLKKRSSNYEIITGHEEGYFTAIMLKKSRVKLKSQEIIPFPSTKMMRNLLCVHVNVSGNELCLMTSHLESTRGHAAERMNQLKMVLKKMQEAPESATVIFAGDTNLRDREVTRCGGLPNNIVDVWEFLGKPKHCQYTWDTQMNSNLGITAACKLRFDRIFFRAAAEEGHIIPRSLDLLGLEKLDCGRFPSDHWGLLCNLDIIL

[24] = target: Protein disulfide-isomerase A6 (Homo sapiens, UniProt Q15084); experiment: Secondary Assay for Selectivity of PDI Inhibitors (against ERp5) Measured in Biochemical System Using Plate Reader - 2137-04_Inhibitor_Dose_DryPowder_Activity_Set3.
Chain of Protein disulfide-isomerase A6 (Q15084 whole entry): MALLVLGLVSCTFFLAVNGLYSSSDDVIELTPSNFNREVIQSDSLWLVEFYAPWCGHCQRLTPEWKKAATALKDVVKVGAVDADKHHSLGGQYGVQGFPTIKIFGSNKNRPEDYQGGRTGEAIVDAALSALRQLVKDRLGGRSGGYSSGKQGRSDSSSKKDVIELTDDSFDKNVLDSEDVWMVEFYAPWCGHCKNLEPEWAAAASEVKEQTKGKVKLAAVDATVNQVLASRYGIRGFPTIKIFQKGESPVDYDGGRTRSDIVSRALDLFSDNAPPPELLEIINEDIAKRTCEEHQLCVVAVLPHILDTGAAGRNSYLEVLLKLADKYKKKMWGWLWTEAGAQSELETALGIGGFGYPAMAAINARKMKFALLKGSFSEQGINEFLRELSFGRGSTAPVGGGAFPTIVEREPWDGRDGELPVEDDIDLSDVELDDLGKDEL

[25] = A Cell-Based Confirmatory Screen for Compounds that Inhibit VEEV, TC-83 (8).; type: functional
[26] = target: Potassium channel subfamily K member 9 (Homo sapiens, UniProt Q9NPC2); experiment: TASK3 (KCNK9) channel inhibitors, thallium flux, SAR follow-up, selectivity assay for TASK1 inhibitor project, cell-based, FluxOR thallium flux, concentration-response (AID 652211); type: functional;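 also: potency is for inhibitors of the channel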
Chain of Potassium channel subfamily K member 9 (Q9NPC2 whole entry): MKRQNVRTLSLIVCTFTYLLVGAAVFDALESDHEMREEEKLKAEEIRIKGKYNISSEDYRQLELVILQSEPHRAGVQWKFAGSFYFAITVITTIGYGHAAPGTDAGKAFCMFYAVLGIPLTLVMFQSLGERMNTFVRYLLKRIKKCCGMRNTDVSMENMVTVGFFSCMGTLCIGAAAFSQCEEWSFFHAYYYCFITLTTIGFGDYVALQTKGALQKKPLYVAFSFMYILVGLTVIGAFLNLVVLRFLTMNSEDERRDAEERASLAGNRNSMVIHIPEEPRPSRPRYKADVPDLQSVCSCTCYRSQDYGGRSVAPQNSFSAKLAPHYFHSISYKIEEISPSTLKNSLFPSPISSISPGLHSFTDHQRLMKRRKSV

[27] = target: Potassium channel subfamily K member 3 (Homo sapiens, UniProt O14649); experiment: TASK1 (KCNK3) potassium channel inhibitors, SAR follow-up, CHO cells, FluxOR thallium flux (AID 652212); type: functional
Chain of Potassium channel subfamily K member 3 (O14649 whole entry): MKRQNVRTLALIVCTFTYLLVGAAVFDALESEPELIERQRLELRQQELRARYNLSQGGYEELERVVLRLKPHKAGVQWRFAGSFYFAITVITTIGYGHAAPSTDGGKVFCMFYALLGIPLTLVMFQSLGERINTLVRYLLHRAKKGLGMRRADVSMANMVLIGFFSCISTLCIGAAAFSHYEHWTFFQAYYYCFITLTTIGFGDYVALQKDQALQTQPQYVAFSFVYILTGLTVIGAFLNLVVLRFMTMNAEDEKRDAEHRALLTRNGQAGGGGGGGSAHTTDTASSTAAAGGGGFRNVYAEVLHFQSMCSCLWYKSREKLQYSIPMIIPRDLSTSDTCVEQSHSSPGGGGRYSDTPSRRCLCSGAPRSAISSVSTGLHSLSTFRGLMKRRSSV

[28] = target: Delta-type opioid receptor (Homo sapiens, UniProt P41143); experiment: Late-stage results from the probe development effort to identify antagonists of OPRK1: fluorescence-based cell-based dose response OPRD1 counterscreen.; type: functional
Chain of Delta-type opioid receptor (P41143 whole entry): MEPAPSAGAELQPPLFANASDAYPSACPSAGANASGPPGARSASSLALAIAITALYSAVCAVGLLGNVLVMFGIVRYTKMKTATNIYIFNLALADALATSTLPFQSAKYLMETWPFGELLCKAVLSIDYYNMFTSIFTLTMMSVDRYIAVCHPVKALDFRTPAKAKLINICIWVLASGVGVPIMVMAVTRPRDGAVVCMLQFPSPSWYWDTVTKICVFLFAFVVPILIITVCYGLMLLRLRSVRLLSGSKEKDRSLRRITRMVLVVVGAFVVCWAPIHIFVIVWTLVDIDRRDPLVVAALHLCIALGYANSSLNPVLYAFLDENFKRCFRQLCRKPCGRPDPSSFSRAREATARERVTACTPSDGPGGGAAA

Mu-type opioid receptor = Mu-type opioid receptor (Homo sapiens, UniProt P35372); experiment: Late-stage results from the probe development effort to identify antagonists of OPRK1: luminescence-based cell-based dose response OPRM1 counterscreen.; type: functional
Chain of Mu-type opioid receptor (P35372 whole entry): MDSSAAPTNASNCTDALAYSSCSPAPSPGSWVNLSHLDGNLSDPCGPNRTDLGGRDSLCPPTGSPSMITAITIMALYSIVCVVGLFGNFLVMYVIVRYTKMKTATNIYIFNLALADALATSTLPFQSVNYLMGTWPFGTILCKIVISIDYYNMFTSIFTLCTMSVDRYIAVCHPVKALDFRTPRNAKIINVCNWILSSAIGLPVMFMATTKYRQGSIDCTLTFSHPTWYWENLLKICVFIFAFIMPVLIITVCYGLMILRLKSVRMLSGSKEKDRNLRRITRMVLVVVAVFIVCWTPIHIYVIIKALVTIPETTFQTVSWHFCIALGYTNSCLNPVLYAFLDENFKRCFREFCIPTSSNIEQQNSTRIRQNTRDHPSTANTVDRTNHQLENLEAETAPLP

[29] = Late-stage results from the probe development effort to identify antagonists of arginine vasopressin receptor 1a (AVPR1a): fluorescence-based cell-based dose response AVPR1a inhibition assay.; type: functional
Vasopressin V1b receptor = Vasopressin V1b receptor (Homo sapiens, UniProt P47901); experiment: Late-stage results from the probe development effort to identify antagonists of arginine vasopressin receptor 1a (AVPR1a): fluorescence-based cell-based dose response AVPR1b inhibition counterscreen assay.; type: functional
Chain of Vasopressin V1b receptor (P47901 whole entry): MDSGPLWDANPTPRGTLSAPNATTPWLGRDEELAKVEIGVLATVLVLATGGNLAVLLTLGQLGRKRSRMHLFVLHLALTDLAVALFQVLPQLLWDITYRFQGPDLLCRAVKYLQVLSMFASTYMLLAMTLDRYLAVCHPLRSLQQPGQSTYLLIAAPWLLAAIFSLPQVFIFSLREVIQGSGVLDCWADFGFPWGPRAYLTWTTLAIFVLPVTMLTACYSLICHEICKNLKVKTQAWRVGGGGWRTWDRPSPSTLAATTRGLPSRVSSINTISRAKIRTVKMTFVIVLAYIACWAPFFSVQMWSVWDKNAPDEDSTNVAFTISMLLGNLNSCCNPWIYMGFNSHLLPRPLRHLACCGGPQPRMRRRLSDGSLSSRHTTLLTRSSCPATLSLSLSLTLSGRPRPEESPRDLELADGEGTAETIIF

Vasopressin V2 receptor = Vasopressin V2 receptor (Homo sapiens, UniProt P30518); experiment: Late-stage results from the probe development effort to identify antagonists of arginine vasopressin receptor 1a (AVPR1a): fluorescence-based cell-based dose response AVPR2 inhibition counterscreen assay.; type: functional
Chain of Vasopressin V2 receptor (P30518 whole entry): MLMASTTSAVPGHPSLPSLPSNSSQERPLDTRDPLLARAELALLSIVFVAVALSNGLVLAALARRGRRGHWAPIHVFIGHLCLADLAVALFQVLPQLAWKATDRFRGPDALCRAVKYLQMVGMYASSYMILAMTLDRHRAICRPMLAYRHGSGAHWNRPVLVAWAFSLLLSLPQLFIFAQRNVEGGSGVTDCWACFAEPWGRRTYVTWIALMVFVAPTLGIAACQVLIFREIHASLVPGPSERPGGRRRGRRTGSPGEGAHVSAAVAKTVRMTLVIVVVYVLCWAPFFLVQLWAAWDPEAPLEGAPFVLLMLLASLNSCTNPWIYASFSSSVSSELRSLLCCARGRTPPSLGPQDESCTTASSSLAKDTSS

[30] = Late-stage results from the probe development effort to identify antagonists of arginine vasopressin receptor 1a (AVPR1a): fluorescence-based cell-based dose response OXTR inhibition counterscreen assay.; type: functional
[31] = A375 melanoma cell viability loss, dose response, counter-screen for MITF inhibitor project, CellTiter-Glo luminescence, dry powder, set 4 (AID 624364); type: functional, cell-based; conditions: A-375;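 also: A375 melanoma cells are MITF independent so this is a counter screen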
[32] = A375 melanoma cell cytotoxicity, dose response, counter-screen for MITF inhibitor project, CellTiter-Glo luminescence, dry powder, set 2 (AID 624489); type: functional, cell-based; conditions: A-375;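 also: actives are compounds lowering A375 viability meaning general cytotoxicity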
[33] = target: NAD-dependent protein deacylase sirtuin-5, mitochondrial (Homo sapiens, UniProt Q9NXA8); experiment: SIRT5 deacylase inhibitors, dose response, biochemical, fluorescence imaging, cherry-pick, set 6 (AID 720597)
Chain of NAD-dependent protein deacylase sirtuin-5, mitochondrial (Q9NXA8 whole entry): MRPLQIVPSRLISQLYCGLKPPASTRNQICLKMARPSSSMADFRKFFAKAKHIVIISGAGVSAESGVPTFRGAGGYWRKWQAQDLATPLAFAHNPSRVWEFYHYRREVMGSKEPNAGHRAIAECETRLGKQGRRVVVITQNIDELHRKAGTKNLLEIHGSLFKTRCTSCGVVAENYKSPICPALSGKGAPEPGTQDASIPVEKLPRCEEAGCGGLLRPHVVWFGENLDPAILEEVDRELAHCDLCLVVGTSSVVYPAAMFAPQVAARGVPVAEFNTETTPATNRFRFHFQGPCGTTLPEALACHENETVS

[34] = inhibitors of fibronectin matrix deposition, dose response, AH1F cells, Alexa488-FN fluorescence, cherry-picks (AID 1035475); type: functional, cell-based

O=C(Nc1nc(-c2cc3ccccc3o2)cs1)c1ccc(S(=O)(=O)N2CCCC2)cc1
EC50 [1]: 4.21 µM (active)
EC50 [2]: > 30 µM (not active)
AC50 [3]: 10.9 µM (active)

CCCN=C(S)Nc1ccc(Nc2ccccc2)cc1
IC50 [4]: 82.4 µM (active)
Ki (fMet-Leu-Phe receptor): > 66.7 µM (inactive)

Cc1ccccc1Nc1nc(N)c2ccccc2n1
EC50 [5]: 1.26 µM (active)
EC50 [6]: 3.1 µM (active)
AC50 [7]: 26 µM (active)

Cc1cc(Cl)ccc1OCCCC(=O)NO
IC50 (Aminopeptidase N): 43.1 µM (active)
CC50 [8]: 29.4 µM (active)
CC50 [9]: 18.9 µM (active)
IC50 (cells): 27.9 µM (active)
IC50 [10]: 1.59 µM (active)

CCOc1ccc(Cn2nnc(C(=O)Nc3cc(OC)cc(OC)c3)c2N)cc1
AC50 [11]: 5.3 µM (active)
AC50 [12]: 26.9 µM (active)
AC50 [13]: 9.37 µM (active)
AC50 [14]: 38.5 µM (active)

C[C@@H]1CCCCO[C@@H](CN(C)Cc2ccccc2)[C@H](C)CN([C@@H](C)CO)C(=O)c2cc(NC(=O)Nc3ccc(C(F)(F)F)cc3)ccc2O1
AC50 (Paired box protein Pax-8): 10.8 µM (active)
AC50 [15]: 44.6 µM (active)
AC50 [16]: 23.1 µM (active)
AC50 [17]: 47.9 µM (active)
AC50 [18]: 42.2 µM (active)

Cc1ccc(S(=O)(=O)Nc2cccc3c2O[C@@H](CN(C)Cc2ccc(Cl)c(Cl)c2)[C@@H](C)CN([C@H](C)CO)C3=O)cc1
AC50 [19]: 12.1 µM (active)
AC50 [20]: 2.75 µM (active)
AC50 [21]: 65.4 µM (active)
AC50 [22]: 19.2 µM (active)

COc1ccc(-n2[nH]c(C)cc2=O)cc1
IC50 [23]: > 128 µM (inactive)

C/C1=C\[C@@H](O)C(C)(C)CCCC2(C)OC2C[C@@H]1OC(=O)c1ccc(O)cc1 (stereo partly specified)
AC50 [24]: 5 µM (active)

CN1CCN(C)/C(=N/c2ccc(C#N)cc2C(=O)Nc2cccc(F)c2)C1
IC50 [25]: 0.84 µM (active)

CCOc1cccc(NC(=O)c2cccc(NC(=O)C3CCCC3)c2)c1
IC50 [26]: 4.07 µM (active)
IC50 [27]: 0.491 µM (active)

COC(=O)c1cc(Br)cnc1N1CCC(N[C@@H]2CCCC[C@H]2O)CC1
IC50 [28]: 3.36 µM (active)
IC50 (Mu-type opioid receptor): 2.8 µM (active)

N#Cc1cccnc1N1CCC(C(=O)N(CC2CC2)c2ccc(Cl)cc2)CC1
IC50 [29]: 0.067 µM (active)
IC50 (Vasopressin V1b receptor): 14 µM (inactive)
IC50 (Vasopressin V2 receptor): 24.4 µM (inactive)
IC50 [30]: 6.8 µM (active)

O=C1C(Nc2ccccc2)=C(N2CCSCC2)C(=O)c2ccccc21
AC50 [31]: > 70 µM (inactive)
AC50 [32]: 69.3 µM (active)

C[C@@H]1CN([C@@H](C)CO)C(=O)c2cc(NS(C)(=O)=O)ccc2O[C@@H](C)CCCCO[C@H]1CN(C)Cc1ccc(C(F)(F)F)cc1
AC50 [33]: > 30 µM (inactive)

C[C@H]1CN([C@@H](C)CO)C(=O)c2cc(NC(=O)CCCN(C)C)ccc2O[C@@H]1CN(C)Cc1ccc(-c2ccccc2)cc1
AC50 [34]: > 70 µM (inactive)
